From patent US20070010671A1, “Novel quinazoline derivatives and methods of treatment related to the use thereof” (priority 2003, published 2007)

These compounds were tested against MCH receptor (Homo sapiens, UniProt Q99705) (assay: High throughput functional screening FLIPR/FDSS6000: inhibition of MCH-evoked intracellular Ca2+ changes). Details: class by percent of control at 10^-7 M or IC50.
Type: cell-based
In short: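 In a kinetic calcium-flux format, compounds were tested at various concentrations against 50 nM MCH. Fluo4-loaded cells expressing a constitutively active, non-endogenous receptor were imaged at 488/530 nm for 290 s after agonist addition.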

Structure (SMILES) | class
CN(C)c1nc(N[C@H]2CC[C@@H](NC(=O)Nc3ccsc3)CC2)nc2ccccc12 [compound 344] | 3 (Class 3: The value of percent of control at 10^−7 M was more than 60% or the value of IC50 was more than 200 nM.)
CN(C)c1nc(N[C@H]2CC[C@@H](CNC(=O)Nc3cccc(SC(F)(F)F)c3)CC2)nc2ccccc12 [compound 518] | 3 (Class 3: The value of percent of control at 10^−7 M was more than 60% or the value of IC50 was more than 200 nM.)
COc1ccc(C)cc1NC(=S)N[C@H]1CC[C@@H](Nc2nc(N(C)C)c3ccccc3n2)CC1 [compound 221, N-(cis-4-{[4-(dimethylamino)quinazolin-2-yl]amino}cyclohexyl)-N′-(2-methoxy-5-methylphenyl)thiourea] | 1 (Class 1: The value of percent of control at 10^−7 M was less than 40% or the value of IC50 was less than 50 nM.)
CN(C)c1nc(N[C@H]2CC[C@@H](CNC(=S)Nc3ccc(C(F)(F)F)cc3)CC2)nc2ccccc12 [compound 655] | 3 (Class 3: The value of percent of control at 10^−7 M was more than 60% or the value of IC50 was more than 200 nM.)
CN(C)c1nc(N[C@H]2CC[C@@H](CNC(=S)Nc3ccc(Oc4ccccc4)cc3)CC2)nc2ccccc12 [compound 745] | 3 (Class 3: The value of percent of control at 10^−7 M was more than 60% or the value of IC50 was more than 200 nM.)
CCc1cccc(C)c1NC(=S)N[C@H]1CC[C@@H](Nc2nc(N(C)C)c3ccccc3n2)CC1 [compound 255, N-(cis-4-{[4-(dimethylamino)quinazolin-2-yl]amino}cyclohexyl)-N′-(2-ethyl-6-methylphenyl)thiourea] | 1 (Class 1: The value of percent of control at 10^−7 M was less than 40% or the value of IC50 was less than 50 nM.)
CN(C)c1nc(N[C@H]2CC[C@@H](CNC(=S)Nc3ccc(OC(F)F)cc3)CC2)nc2ccccc12 [compound 653] | 3 (Class 3: The value of percent of control at 10^−7 M was more than 60% or the value of IC50 was more than 200 nM.)
Cc1ccc(NC(=S)N[C@H]2CC[C@@H](Nc3nc(N(C)C)c4ccccc4n3)CC2)c([N+](=O)[O-])c1 [compound 279] | 3 (Class 3: The value of percent of control at 10^−7 M was more than 60% or the value of IC50 was more than 200 nM.)
Cc1cccc(C)c1NC(=S)NC[C@H]1CC[C@@H](Nc2nc(N(C)C)c3ccccc3n2)CC1 [compound 593, N-[(cis-4-{[4-(dimethylamino)quinazolin-2-yl]amino}cyclohexyl)methyl]-N′-(2,6-dimethylphenyl)thiourea] | 2 (Class 2: The value of percent of control at 10^−7 M was from 40% to 60% or the value of IC50 was from 50 nM to 200 nM.)
CNC(=S)NC[C@H]1CC[C@@H](Nc2nc(N(C)C)c3ccccc3n2)CC1 [compound 610] | 3 (Class 3: The value of percent of control at 10^−7 M was more than 60% or the value of IC50 was more than 200 nM.)
Cc1ccc(C)c(NC(=S)NC[C@H]2CC[C@@H](Nc3nc(N(C)C)c4ccccc4n3)CC2)c1 [compound 783, N-[(cis-4-{[4-(dimethylamino)quinazolin-2-yl]amino}cyclohexyl)methyl]-N′-(2,5-dimethylphenyl)thiourea] | 2 (Class 2: The value of percent of control at 10^−7 M was from 40% to 60% or the value of IC50 was from 50 nM to 200 nM.)
Cc1ccccc1CNC(=O)NC[C@H]1CC[C@@H](Nc2nc(N(C)C)c3ccccc3n2)CC1 [compound 510, N-[(cis-4-{[4-(dimethylamino)quinazolin-2-yl]amino}cyclohexyl)methyl]-N′-(2-methylbenzyl)urea] | 2 (Class 2: The value of percent of control at 10^−7 M was from 40% to 60% or the value of IC50 was from 50 nM to 200 nM.)
COc1ccc(C)cc1NC(=O)NC[C@H]1CC[C@@H](Nc2nc(N(C)C)c3ccccc3n2)CC1 [compound 504] | 1 (Class 1: The value of percent of control at 10^−7 M was less than 40% or the value of IC50 was less than 50 nM.)
CSc1cccc(NC(=S)NC[C@H]2CC[C@@H](Nc3nc(N(C)C)c4ccccc4n3)CC2)c1 [compound 681] | 3 (Class 3: The value of percent of control at 10^−7 M was more than 60% or the value of IC50 was more than 200 nM.)
CCc1cccc(CC)c1NC(=S)N[C@H]1CC[C@@H](Nc2nc(N(C)C)c3ccccc3n2)CC1 [compound 250, N-(2,6-diethylphenyl)-N′-(cis-4-{[4-(dimethylamino)quinazolin-2-yl]amino}cyclohexyl)thiourea] | 1 (Class 1: The value of percent of control at 10^−7 M was less than 40% or the value of IC50 was less than 50 nM.)
CN(C)c1nc(N[C@H]2CC[C@@H](CNC(=S)Nc3ccc(NC(=O)OC(C)(C)C)cc3)CC2)nc2ccccc12 [compound 664] | 3 (Class 3: The value of percent of control at 10^−7 M was more than 60% or the value of IC50 was more than 200 nM.)
Cc1ccc(F)cc1NC(=O)NC[C@H]1CC[C@@H](Nc2nc(N(C)C)c3ccccc3n2)CC1 [compound 567, N-[(cis-4-{[4-(dimethylamino)quinazolin-2-yl]amino}cyclohexyl)methyl]-N′-(5-fluoro-2-methylphenyl)urea] | 2 (Class 2: The value of percent of control at 10^−7 M was from 40% to 60% or the value of IC50 was from 50 nM to 200 nM.)
CN(C)c1nc(N[C@H]2CC[C@@H](NC(=S)NC3CC4CCC3C4)CC2)nc2ccccc12 (relative stereo) [compound 377] | 1 (Class 1: The value of percent of control at 10^−7 M was less than 40% or the value of IC50 was less than 50 nM.)
CN(C)c1nc(N[C@H]2CC[C@@H](NC(=S)Nc3ccc(-c4cnco4)cc3)CC2)nc2ccccc12 [compound 401] | 3 (Class 3: The value of percent of control at 10^−7 M was more than 60% or the value of IC50 was more than 200 nM.)
CN(C)c1nc(N[C@H]2CC[C@@H](CNC(=O)Nc3c(F)cc(Br)cc3F)CC2)nc2ccccc12 [compound 542, N-(4-bromo-2,6-difluorophenyl)-N′-[(cis-4-{[4-(dimethylamino)quinazolin-2-yl]amino}cyclohexyl)methyl]urea] | 1 (Class 1: The value of percent of control at 10^−7 M was less than 40% or the value of IC50 was less than 50 nM.)

Same assay, conditions: class by percent of control at 10^-7 M or by IC50; read-out: class

IC50 [nM] | Structure (SMILES)
50 to 200 | Cc1cc(C)cc(NC(=O)N[C@H]2CC[C@@H](Nc3nc(N(C)C)c4ccccc4n3)CC2)c1 [compound 127, N-(cis-4-{[4-(dimethylamino)quinazolin-2-yl]amino}cyclohexyl)-N′-(3,5-dimethylphenyl)urea]
> 200 | CN(C)c1nc(N[C@H]2CC[C@@H](NC(=S)NCc3ccco3)CC2)nc2ccccc12 [compound 174]
50 to 200 | CN(C)c1nc(N[C@H]2CC[C@@H](NC(=O)NCCc3ccccc3)CC2)nc2ccccc12 [compound 842, N-(cis-4-{[4-(dimethylamino)quinazolin-2-yl]amino}cyclonexyl)-N′-(2-phenylethyl)urea]
< 50 | CN(C)c1nc(N[C@H]2CC[C@@H](NC(=O)Nc3cccc4ccccc34)CC2)nc2ccccc12 [compound 50, N-(cis-4-{[4-(dimethylamino)quinazolin-2-yl]amino}cyclohexyl)-N′-1-napthylurea]
50 to 200 | COc1cc([N+](=O)[O-])ccc1NC(=O)N[C@H]1CC[C@@H](Nc2nc(N(C)C)c3ccccc3n2)CC1 [compound 104, N-(cis-4-{[4-(dimethylamino)quinazolin-2-yl]amino}cyclohexyl)-N′-(2-methoxy-4-nitrophenyl)urea]
> 200 | CN(C)c1nc(N[C@H]2CC[C@@H](NC(=O)Nc3cc(Cl)ccc3[N+](=O)[O-])CC2)nc2ccccc12 [compound 837]
50 to 200 | CN(C)c1nc(N[C@H]2CC[C@@H](NC(=S)Nc3ccc([N+](=O)[O-])cc3)CC2)nc2ccccc12 [compound 189]
> 200 | Cc1cccc(NC(=S)N[C@H]2CC[C@@H](Nc3nc(N(C)C)c4ccccc4n3)CC2)c1 [compound 181]

Same assay, conditions: class by percent of control at 10^−7 M or by IC50; read-out: class

IC50 [nM] | Structure (SMILES)
< 50 | CN(C)c1nc(N[C@H]2CC[C@@H](C(=O)NCc3c(F)ccc(F)c3F)CC2)nc2ccccc12 [Example 1172, cis-4-{[4-(dimethylamino)quinazolin-2-yl]amino}-N-(2,3,6-trifluorobenzy)cyclohexanecarboxamide]
< 50 | CN(C)c1nc(N[C@H]2CC[C@@H](C(=O)NCc3ccccc3OC(F)(F)F)CC2)nc2ccccc12 [Example 1167, cis-4-{[4-(dimethylamino)quinazolin-2-yl]amino}-N-[2-(trifluoromethoxy)benzyl]cyclohexanecarboxamide]
< 50 | CN(C)c1nc(N[C@H]2CC[C@@H](NC(=O)c3ccc(Oc4ccc(Cl)c(F)c4)nc3)CC2)nc2ccccc12 [Example 1069, 6-(4-chloro-3-fluorophenoxy)-N-(cis-4-{[4-(dimethylamino)quinazolin-2-yl]amino}cyclohexyl)nicotinamide]
< 50 | CN(C)c1nc(N[C@H]2CC[C@@H](C(=O)NCc3cc(Br)ccc3F)CC2)nc2ccccc12 [Example 1163, cis-N-(5-bromo-2-fluorobenzyl)-4-{[4-(dimethylamino)quinazolin-2-yl]amino}cyclohexanecarboxamide]
< 50 | Cc1cccc(NCC(=O)N[C@H]2CC[C@@H](Nc3nc(N(C)C)c4ccccc4n3)CC2)c1 [Example 1086, N-(cis-4-{[4-(dimethylamino)quinazolin-2-yl]amino}cyclohexyl)-N2-(3-methylphenyl)glycinamide]
50 to 200 | CN(C)c1nc(N[C@H]2CC[C@@H](CNC(=O)Nc3ccc(Cl)cc3Cl)CC2)nc2ccccc12 [Example 1029, N-(2,4-dichlorophenyl)-N′-[(cis-4-{[4-(dimethylamino)quinazolin-2-yl]amino}cyclohexyl)methyl]urea]
< 50 | COc1cc(OC)cc(Oc2ncccc2C(=O)N[C@H]2CC[C@@H](Nc3nc(N(C)C)c4ccccc4n3)CC2)c1 [Example 1039, 2-(3,5-dimethoxyphenoxy)-N-(cis-4-{[4-(dimethylamino)quinazolin-2-yl]amino}cyclohexyl)nicotinamide]
